Entries after “also recorded” stand apart in the source; their conditions may differ.
Assays:
[1] = XRPD of polymorphs after air-drying or vacuum-drying (solid form stability); type: physicochemical; conditions: for Crystallinity / XRPD pattern after air-drying: air-dried (overnight); for Crystallinity / XRPD pattern after vacuum-drying: vacuum dried overnight (80° C.)
Protocol: Large scale studies were performed with HM30181 mesylate Type A starting material on a 200 mg scale as described below. Solids were isolated by vacuum filtration. The wet cakes from filtration from DMA, DMF, and NMP slurries were washed with 1 mL to 2 mL methanol to remove solvents. […]
XRPD was performed using a Panalytical X'Pert3™ Powder XRPD and on a Si zero-background holder. The 2θ position was calibrated against a Panalytical™ 640 Si powder standard. Details of XRPD used in the experiments are listed below in Table 20.

[2] = 1H-NMR check for disproportionation or degradation; type: physicochemical; conditions: large scale polymorph samples, DMSO-d6
Description: At large scale, a slurry of HM30181 mesylate Type A starting material in methanol at ambient conditions generated a mixture of HM30181 mesylate Type B and HM30181 mesylate Type A after 9 days (see FIG. 32). After 14 days, the slurry in methanol generated a HM30181 mesylate Type N polymorph. […] A scaled-up slurry of HM30181 mesylate Type A starting material in DMA yielded HM30181 mesylate Type E after 6 days (see FIG. 35). […] A scaled-up slurry of HM30181 mesylate Type A starting material in DMF at 50° C. yielded HM30181 mesylate Type F rather than the expected HM30181 mesylate Type G after 9 days (see FIG. 36). […] This slurry was heated in an attempt to generate HM30181 mesylate Type G. A scaled-up slurry of HM30181 mesylate Type A starting material in DMF at 100° C. yielded HM30181 mesylate Type F after 2 days (see FIG. 37). A scaled-up slurry of HM30181 mesylate Type A starting material in DMF at 150° C. yielded a previously unobserved XRPD pattern after 5 days (see FIG. 37).
By 1H-NMR, HM30181 mesylate Type E contained DMA, HM30181 mesylate Type F contains DMF, and HM30181 mesylate Type N contains MeOH.
Proton NMR were obtained using a Varian 200M™ NMR in deuterated DMSO (DMSO-d6).

Structure (SMILES) | Crystallinity / XRPD pattern after air-drying [1] | Disproportionation or degradation by 1H-NMR [2] | Crystallinity / XRPD pattern after vacuum-drying [1] | Crystallinity / XRPD pattern after air-drying ([1]; listed as Type I)
COc1cc2c(cc1OC)CN(CCc1ccc(-n3nnc(-c4cc(OC)c(OC)cc4NC(=O)c4cc(=O)c5ccccc5o4)n3)cc1)CC2.CS(=O)(=O)O [HM30181 mesylate Type G, HM30181 mesylate] | No reduction in crystallinity | – | – | –
COc1cc2c(cc1OC)CN(CCc1ccc(-n3nnc(-c4cc(OC)c(OC)cc4NC(=O)c4cc(=O)c5ccccc5o4)n3)cc1)CC2.CS(=O)(=O)O [HM30181 mesylate Type N, HM30181 mesylate] | – | no disproportionation or degradation was detected | some loss of crystallinity | –
COc1cc2c(cc1OC)CN(CCc1ccc(-n3nnc(-c4cc(OC)c(OC)cc4NC(=O)c4cc(=O)c5ccccc5o4)n3)cc1)CC2.CS(=O)(=O)O [HM30181 mesylate Type E, HM30181 mesylate] | – | no disproportionation or degradation was detected | no loss of crystallinity; also recorded: No change in crystalline pattern | –
COc1cc2c(cc1OC)CN(CCc1ccc(-n3nnc(-c4cc(OC)c(OC)cc4NC(=O)c4cc(=O)c5ccccc5o4)n3)cc1)CC2.CS(=O)(=O)O [HM30181 mesylate Type C, HM30181 mesylate] | no significant change | no disproportionation or degradation was detected | no loss of crystallinity was detected; also recorded: No change in crystalline pattern | –
COc1cc2c(cc1OC)CN(CCc1ccc(-n3nnc(-c4cc(OC)c(OC)cc4NC(=O)c4cc(=O)c5ccccc5o4)n3)cc1)CC2.CS(=O)(=O)O [HM30181 mesylate Type F, HM30181 mesylate] | – | no disproportionation or degradation was detected | Some change of pattern; also recorded: significant reduction in crystallinity | –
COc1cc2c(cc1OC)CN(CCc1ccc(-n3nnc(-c4cc(OC)c(OC)cc4NC(=O)c4cc(=O)c5ccccc5o4)n3)cc1)CC2.CS(=O)(=O)O [HM30181 mesylate Type D, HM30181 mesylate] | Some loss of crystallinity; also recorded: No change in crystalline pattern | – | – | –
COc1cc2c(cc1OC)CN(CCc1ccc(-n3nnc(-c4cc(OC)c(OC)cc4NC(=O)c4cc(=O)c5ccccc5o4)n3)cc1)CC2.CS(=O)(=O)O [HM30181 mesylate Type I, HM30181 mesylate] | yielded HM30181 mesylate Type J | – | – | Type J on air-drying
